Reference: US4407803A, “Antiinflammatory 1-(quinolinyl)-2-pyrazoline derivatives” (Abbott Laboratories, priority 1981, dated 1983)

Columns and labels:
dermal Arthus reaction = assay: reverse passive Arthus assay in rats (dermal lesion); assay type: in vivo, Male Sprague-Dawley rats; settings: 100 mg/kg, oral, 30 min before anti-B.S.A.; lesion measured at four hours
Protocol: Proc. 35, 774 (1976). Each compound was administered orally to a group of four animals.
The […] passive Arthus reaction test in rats is conducted as follows: Male Sprague-Dawley rats weighing approximately 130-160 g. are used, 4 rats per group. All animals are injected intravenously with 0.5 ml. 0.075% Bovine Serum Albumin (B.S.A.)+2% Evans Blue solution. Each rat then receives an oral dose of drug; one drug is administered per group.
Thirty minutes subsequent to drug dosing, each animal is injected intradermally with 0.05 ml. 1.44% Anti-B.S.A. into the dorsal skin. Four hours later the animals are sacrificed, the dorsal skin reflexed, and the lesion excised. Two perpendicular diameters of each lesion are measured. The average diameters of the lesions from the treated groups are compared with the average diameters from the control group to determine any drug effect.

carrageenin pleurisy = assay: modification of the carrageenin pleurisy assay (reduction in accumulation of exudate volume and leukocytes); assay type: in vivo; settings: for % Inhibition Cells: leukocytes
Excerpt: The compounds of the present invention have anti-inflammatory activity and inhibitory effect against Type III hypersensitivity reaction. These compounds are useful for the therapy of rheumatoid arthritis, other inflammatory conditions, Type III hypersensitivity diseases and in diseases in which polymorphonuclear leukocytes accumulation contributes to the pathology. The anti-inflammatory activity of these compounds was established by using a modification of the carrageenin pleurisy assay described by Vinegar et al. Proc. Soc. Exp. Biol. Med. 143:711 (1973).

Compound	% Inhibition of lesion of dermal Arthus reaction (dermal Arthus reaction) [%]	% Inhibition Volume exudates (carrageenin pleurisy; Dose 60 (dose unit not given)) [%]	% Inhibition Cells (carrageenin pleurisy; Dose 60 (dose unit not given)) [%]	% Inhibition Volume exudates (carrageenin pleurisy; Dose 100 (dose unit not given)) [%]	% Inhibition Cells (carrageenin pleurisy; Dose 100 (dose unit not given)) [%]
N=C1CCN(c2ccc3ccccc3n2)N1 [1-(2'-quinolinyl)-3-iminopyrazolidine, 1-(2'-quinolinyl)-3-imino-pyrazolidine]	72				
N=C1CCN(c2cnc3ccccc3c2)N1 [1-(3'-quinolinyl)-3-iminopyrazolidine, 1-(3'-Quinolinyl)-3-iminopyrazolidine]	37	86	71		
N=C1CCN(c2ccnc3cc(Cl)ccc23)N1 [1-(7'-chloro-4'-quinolinyl)-3-imino pyrazolidine]	53				
CCCCC1C(=O)N(c2ccccc2)N(c2ccccc2)C1=O [Phenylbutazone, reference compound]				59	13
